From patent CN116919972A, “去氧胆酸在制备抗水生病毒感染的药物或添加剂中的应用” (priority 2023, dated 2023)

How the values were obtained:
[1] = tested on: SVCV (鲤春病毒血症病毒); assay: Inhibition of SVCV-G gene expression in EPC cells (RT-qPCR); assay type: cell-based; settings: 12 h pretreatment, 0.1 MOI SVCV, 28 °C, 24 h
[2] = tested on: SVCV-G protein (SVCV-G蛋白); assay: Inhibition of SVCV-G protein expression in EPC cells (western blot); assay type: cell-based; settings: 1-50 μM, increasing concentration, 0.1 MOI SVCV, 28 °C, 24 h
[3] = tested on: SVCV (鲤春病毒血症病毒); assay: Inhibition of SVCV virus particle formation (plaque assay on EPC cell supernatant); assay type: cell-based; settings: 50 μM, EPC cells, 0.1 MOI SVCV, 28 °C, 24 h; control 10^6.11 PFU/mL
[4] = tested on: SVCV (鲤春病毒血症病毒); assay: Survival of SVCV-infected zebrafish fed deoxycholic acid; assay type: in vivo; settings: 0.2 mg/fish per feeding, 7 days before injection of 10^4 PFU SVCV, 14 d observation, 16 °C; control 23.33%
[5] = tested on: SVCV (鲤春病毒血症病毒); assay: Viral load in organs of SVCV-infected zebrafish (absolute quantification of SVCV-G); assay type: in vivo; settings: 5 d after SVCV infection, DCA 0.2 mg/fish fed
[6] = tested on: SVCV (鲤春病毒血症病毒); assay: Histopathology (H&E) of organs of SVCV-infected zebrafish; assay type: in vivo; settings: zebrafish liver, intestine, kidney, 5 d after SVCV infection, versus SVCV infection group
[7] = tested on: zebrafish (斑马鱼); assay: Toxicity to zebrafish by organ histology (H&E), uninfected; assay type: in vivo; settings: DCA-fed (0.2 mg/fish), liver, intestine, kidney histology
[8] = tested on: IHNV (传染性造血器官坏死病病毒); assay: Inhibition of IHNV in EPC cells (RT-qPCR of IHNV-G gene); assay type: cell-based; settings: 50 μM, 0.1 MOI IHNV, 16 °C, 24 h, P<0.0001 vs control
[9] = tested on: IHNV (传染性造血器官坏死病病毒); assay: Survival of IHNV-infected rainbow trout fed deoxycholic acid; assay type: in vivo; settings: 0.2 mg/fish per feeding, 7 days before injection of 10^4 PFU IHNV, 14 d observation, 16 °C; control 30%
[10] = tested on: IHNV (传染性造血器官坏死病病毒); assay: Viral load in organs of IHNV-infected rainbow trout (IHNV-G quantification); assay type: in vivo; settings: 5 d after IHNV infection, DCA 0.2 mg/fish fed
[11] = tested on: IHNV (传染性造血器官坏死病病毒); assay: Histopathology (H&E) of organs of IHNV-infected rainbow trout; assay type: in vivo; settings: rainbow trout liver, intestine, kidney, 5 d after IHNV infection, versus IHNV infection group
[12] = tested on: rainbow trout (虹鳟); assay: Toxicity to rainbow trout by organ histology (H&E), uninfected; assay type: in vivo; settings: DCA-fed (0.2 mg/fish), liver, intestine, kidney histology

## C[C@H](CCC(=O)O)[C@H]1CC[C@H]2[C@@H]3CC[C@@H]4C[C@H](O)CC[C@]4(C)[C@H]3C[C@H](O)[C@]12C [去氧胆酸]
[1]; 1 μM, P<0.01, read-out: decrease of SVCV-G gene expression relative to control
  inhibition at 1 µM: 30.2%
[1]; 5 μM, P<0.001, read-out: decrease of SVCV-G gene expression relative to control
  inhibition at 5 µM: 49.2%
[1]; 10 μM, P<0.001, read-out: decrease of SVCV-G gene expression relative to control
  inhibition at 10 µM: 50.7%
[1]; 20 μM, P<0.0001, read-out: decrease of SVCV-G gene expression relative to control
  inhibition at 20 µM: 68%
[1]; 50 μM, P<0.0001, read-out: decrease of SVCV-G gene expression relative to control
  inhibition at 50 µM: 92%
[2]
  SVCV G protein expression compared with control: 依次降低
[3]
  SVCV detection in cell supernatant: 无法被检测到
[4]
  survival rate of SVCV-infected zebrafish: 66.67%
[5]; intestine
  viral load in intestine: 显著降低
[5]; kidney
  viral load in kidney: 显著降低
[5]; liver
  viral load in liver: 显著降低
[6]
  pathological damage caused by virus infection in organs: 明显减轻
[7]
  toxicity to zebrafish: 没有毒性
[8]
  IHNV viral load: 显著降低
[9]
  survival rate of IHNV-infected rainbow trout: 60%
[10]; intestine
  viral load in intestine: 显著降低
[10]; kidney
  viral load in kidney: 显著降低
[11]
  pathological damage caused by virus infection in organs: 明显减轻
[12]
  toxicity to rainbow trout: 没有毒性
